# Data: US20210255193A1, “LYSINE REACTIVE PROBES AND USES THEREOF” (The Scripps Research Institute, priority 2017, published 2021)
# Tests used:
# [1] = biological target: T1, PFKL 6-phosphofructokinase, liver type (Homo sapiens, UniProt P17858); test: competitive isoTOP-ABPP; type: binding; details: for R value (DMSO/fragment) for probe 1 labeling / isoTOP-ABPP reactivity ratio at lysine P17858_K315 / isoTOP-ABPP reactivity ratio at lysine P17858_K677 / isoTOP-ABPP reactivity ratio at lysine P17858_K715: 231 sol; for isoTOP-ABPP ratio, lysine P17858_K715: possible other lysine P17858_K714
# T1 construct: isoTOP-ABPP experiments performed in cell lysates (in vitro); endogenous in cells; host or cells: soluble proteome of human cancer cell lines (MDA-MB-231; Ramos and Jurkat also prepared)
# T1 sequence (P17858 1-780): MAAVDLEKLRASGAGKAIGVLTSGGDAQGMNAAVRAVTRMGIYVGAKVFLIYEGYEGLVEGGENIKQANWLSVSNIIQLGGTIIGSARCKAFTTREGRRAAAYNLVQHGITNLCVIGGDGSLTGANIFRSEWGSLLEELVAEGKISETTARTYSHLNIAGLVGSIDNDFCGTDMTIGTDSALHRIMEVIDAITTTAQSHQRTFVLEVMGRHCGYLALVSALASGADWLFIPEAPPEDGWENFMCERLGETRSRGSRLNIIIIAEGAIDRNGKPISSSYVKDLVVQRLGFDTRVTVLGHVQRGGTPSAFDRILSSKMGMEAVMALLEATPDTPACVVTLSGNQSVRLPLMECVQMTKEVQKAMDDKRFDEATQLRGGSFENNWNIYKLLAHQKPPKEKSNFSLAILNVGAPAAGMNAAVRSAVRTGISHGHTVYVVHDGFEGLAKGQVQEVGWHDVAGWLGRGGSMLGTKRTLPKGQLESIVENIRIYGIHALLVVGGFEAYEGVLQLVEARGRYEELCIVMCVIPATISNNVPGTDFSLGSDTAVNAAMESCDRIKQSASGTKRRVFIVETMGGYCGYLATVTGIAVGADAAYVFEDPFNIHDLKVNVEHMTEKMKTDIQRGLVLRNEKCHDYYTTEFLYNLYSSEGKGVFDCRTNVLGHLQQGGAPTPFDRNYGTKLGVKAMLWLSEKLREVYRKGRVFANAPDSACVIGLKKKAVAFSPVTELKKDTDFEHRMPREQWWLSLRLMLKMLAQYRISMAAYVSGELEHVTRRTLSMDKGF
# Summary of the method: (§1)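 Lysine engagement is reported as R, the MS1 peak-area ratio of heavy-tagged DMSO to light-tagged compound samples. Final fragment concentrations were 50 μM for activated esters and 100 μM for guanidinylating agents; STP-alkyne probe 0.1 mM, 1 h.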
# [2] = biological target: T2, DCTN2 Dynactin subunit 2 (Homo sapiens, UniProt Q13561); test: competitive isoTOP-ABPP; type: binding; details: for isoTOP-ABPP ratio (R) at liganded lysine Q13561_K175: sol, 231
# T2 construct: isoTOP-ABPP experiments performed in cell lysates (in vitro); endogenous in cells; host or cells: soluble proteome of human cancer cell lines (MDA-MB-231, Ramos, Jurkat)
# T2 sequence (Q13561 whole entry): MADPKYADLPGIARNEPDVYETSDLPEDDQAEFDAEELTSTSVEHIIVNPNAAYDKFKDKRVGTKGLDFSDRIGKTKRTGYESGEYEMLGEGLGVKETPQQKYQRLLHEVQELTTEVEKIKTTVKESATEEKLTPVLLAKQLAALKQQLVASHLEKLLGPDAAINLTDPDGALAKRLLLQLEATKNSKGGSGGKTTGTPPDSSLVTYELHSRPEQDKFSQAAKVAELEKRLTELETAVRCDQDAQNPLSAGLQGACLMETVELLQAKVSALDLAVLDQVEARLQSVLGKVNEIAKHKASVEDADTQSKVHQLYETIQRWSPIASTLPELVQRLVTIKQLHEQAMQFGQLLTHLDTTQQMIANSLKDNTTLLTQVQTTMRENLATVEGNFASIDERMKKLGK
# Summary of the method: as §1
smiles,measurement,setting,value
"O=C(CCc1cn(-c2ccccc2)nc1-c1ccccc1)Oc1c(F)c(F)c(F)c(F)c1F [fragment 19, Pentafluorophenyl 3-(1,3-diphenyl-1H-pyrazol-4-yl)propanoate]",R value (DMSO/fragment) for probe 1 labeling,"[1]; P17858_K315, 50 uM, in vitro",1.0
same,R value (DMSO/fragment) for probe 1 labeling,"[1]; P17858_K677, 50 uM, in vitro",1.2
same,R value (DMSO/fragment) for probe 1 labeling,"[1]; P17858_K715, 50 uM, in vitro",1.6
"COc1cc(CCC(=O)Oc2c(F)c(F)c(F)c(F)c2F)cc(OC)c1OC [fragment 23, Pentafluorophenyl 3-(3,4,5-trimethoxyphenyl)propanoate]",R value (DMSO/fragment) for probe 1 labeling,"[1]; P17858_K677, 50 uM, in vitro",1.8
same,R value (DMSO/fragment) for probe 1 labeling,"[1]; P17858_K715, 50 uM, in vitro",0.6
same,R value (DMSO/fragment) for probe 1 labeling,"[2]; Q13561_K175, 50 uM, 231 sol, in vitro",1.1
"O=C(Oc1c(F)c(F)c(F)c(F)c1F)C1CCN(C(=O)OCc2ccccc2)CC1 [fragment 24, 1-Benzyl 4-(pentafluorophenyl) piperidine-1,4-dicarboxylate]",isoTOP-ABPP reactivity ratio at lysine P17858_K315,"[1]; 50 uM, in vitro",0.9
same,isoTOP-ABPP reactivity ratio at lysine P17858_K677,"[1]; 50 uM, in vitro",3.3
same,isoTOP-ABPP reactivity ratio at lysine P17858_K715,"[1]; 50 uM, in vitro",0.9
same,isoTOP-ABPP reactivity ratio at lysine Q13561_K175,"[2]; 50 uM, 231 sol, in vitro",1.3
"O=C(Oc1c(F)c(F)c(F)c(F)c1F)c1ccc2ccccc2n1 [fragment 25, Pentafluorophenyl quinoline-2-carboxylate]",isoTOP-ABPP reactivity ratio at lysine P17858_K315,"[1]; 50 uM, in vitro",0.9
same,isoTOP-ABPP reactivity ratio at lysine P17858_K677,"[1]; 50 uM, in vitro",1.6
same,isoTOP-ABPP reactivity ratio at lysine P17858_K715,"[1]; 50 uM, in vitro",1.3
same,isoTOP-ABPP reactivity ratio at lysine Q13561_K175,"[2]; 50 uM, 231 sol, in vitro",1.1
"CCn1cc(C(=O)Oc2c(F)c(F)c(F)c(F)c2F)c(=O)c2ccc(C)nc21 [fragment 28, Pentafluorophenyl 1-ethyl-7-methyl-4-oxo-1,4-dihydro-1,8-naphthyridine-3-carboxylate]",isoTOP-ABPP reactivity ratio at lysine P17858_K677,"[1]; 50 uM, in vitro",1.1
same,isoTOP-ABPP reactivity ratio at lysine P17858_K715,"[1]; 50 uM, in vitro",1.5
"COc1cc(CCC(=O)Oc2ccc([N+](=O)[O-])cc2[N+](=O)[O-])cc(OC)c1OC [fragment 33, 2,4-Dinitrophenyl 3-(3,4,5-trimethoxyphenyl)propanoate]",isoTOP-ABPP reactivity ratio at lysine P17858_K315,"[1]; 50 uM, in vitro",0.8
same,isoTOP-ABPP reactivity ratio at lysine P17858_K677,"[1]; 50 uM, in vitro",2.0
same,isoTOP-ABPP reactivity ratio at lysine P17858_K715,"[1]; 50 uM, in vitro",1.1
same,isoTOP-ABPP reactivity ratio at lysine Q13561_K175,"[2]; 50 uM, 231 sol, in vitro",1.6
"O=C(Oc1ccc([N+](=O)[O-])cc1[N+](=O)[O-])c1ccc2ccccc2n1 [fragment 35, 2,4-Dinitrophenyl quinoline-2-carboxylate]",isoTOP-ABPP ratio (R) at liganded lysine P17858_K677,"[1]; 50 uM, in vitro, sol, 231",1.5
same,isoTOP-ABPP ratio (R) at liganded lysine P17858_K715,"[1]; 50 uM, in vitro, sol, 231",1.3
same,isoTOP-ABPP ratio (R) at liganded lysine Q13561_K175,"[2]; 50 uM, in vitro",0.8
"CC(C)(C)OC(=O)NCCCC(=O)Oc1ccc([N+](=O)[O-])cc1[N+](=O)[O-] [fragment 41, 2,4-Dinitrophenyl 4-((tert-butoxycarbonyl)amino)butanoate]",isoTOP-ABPP ratio (R) at liganded lysine P17858_K315,"[1]; 50 uM, in vitro, sol, 231",2.3
same,isoTOP-ABPP ratio (R) at liganded lysine P17858_K677,"[1]; 50 uM, in vitro, sol, 231",5.6
same,isoTOP-ABPP ratio (R) at liganded lysine P17858_K715,"[1]; 50 uM, in vitro, sol, 231",2.0
same,isoTOP-ABPP ratio (R) at liganded lysine Q13561_K175,"[2]; 50 uM, in vitro",1.3
"COC(=O)NC(=NC(=O)OCC1c2ccccc2-c2ccccc21)n1cccn1 [fragment 49, N-Methoxycarbonyl-N′-9-fluorenylmethoxycarbonyl-pyrazole-1-carboxamidine]","isoTOP-ABPP ratio, lysine P17858_K715",[1]; 100 uM_231_sol_in vitro,1.8
same,"isoTOP-ABPP ratio, lysine Q13561_K175",[2]; 100 uM_231_sol_in vitro,1.5
"NC(=O)c1cc(C(F)(F)F)cc(C(F)(F)F)c1 [fragment 51, reference compound]","isoTOP-ABPP ratio, lysine P17858_K677","[1]; 50 uM_231_sol_in vitro, possible other lysine P17858_K681",0.9
same,"isoTOP-ABPP ratio, lysine P17858_K715",[1]; 50 uM_231_sol_in vitro,0.9
same,"isoTOP-ABPP ratio, lysine Q13561_K175",[2]; 50 uM_231_sol_in vitro,0.9
